Data reported in US7321027B2, “Small technetium-99m and rhenium labeled agents and methods for imaging tumors” (President and Fellows of Harvard College, priority 2000, dated 2008).

How the values were obtained:
melanoma = details: 1 hour post injection; cited from earlier work
σ2-receptors = biological target: T1, σ2-receptors (Rattus norvegicus, UniProt Q5U3Y7); test: σ2-Receptor binding assay; details: σ2 vs σ1
T1 construct: Rat liver membranes were prepared from male Sprague-Dawley rat livers as previously described; from tissue; host or cells: male Sprague-Dawley rat liver membranes
T1 sequence (Q5U3Y7 1-176): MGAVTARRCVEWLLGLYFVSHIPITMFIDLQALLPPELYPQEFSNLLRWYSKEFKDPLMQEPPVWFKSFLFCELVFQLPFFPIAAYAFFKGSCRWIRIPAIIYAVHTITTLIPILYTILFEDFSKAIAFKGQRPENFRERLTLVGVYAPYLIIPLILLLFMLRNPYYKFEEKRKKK
Description: Receptor Binding Studies. To understand the involvement of receptor binding in the melanoma-cell uptake of these ^99mTc-complexes, we further investigated the affinity of these complexes in an established σ-receptor assay.
σ2-Receptor Binding Assay. Rat liver membranes were prepared from male Sprague-Dawley rat livers as previously described (Hellewell, S. B.; Bruce A.; Feinstein, G.; Orringer, J.; Williams, W.; Bowen, W. D. Rat Liver and Kidney Contain High Densities of σ1 and σ2 Receptors: Characterization by Ligand Binding and Photoaffinity Labeling. Eur. J. Pharmacol.-Mol. Pharmacol. Sect. 1994, 268, 9-18). […] Competition assays were performed with fifteen concentrations of the nonradioactive rhenium complexes ranging from 10^−10 to 10^−3 M and protein samples (0.15 mg membrane protein) in Tris-HCl (50 mM), pH 8.0, for 120 min at 25° C. in a 0.25-mL volume. All other manipulations and data analysis were performed as described vide supra for the σ1 receptor assay.

[1] = Determination of lipophilicity and pKa values by HPLC; format: physicochemical; details: HPLC method
Description: The physicochemical parameters of the rhenium complexes, i.e. lipophilicity log P, log D(pH 7.4), and pKa (Table 2) were determined using HPLC methods (Braumann, T.; Grimme, L. H. Determination of Hydrophobic Parameters for Pyridazinone Herbicides by Liquid-Liquid Partition and Reversed-Phase High-Performance Liquid Chromatography. J. Chromatogr. 1981, 206, 7-15; Stytli, C.; Theobald, A. E. Determination of Ionization Constants of Radiopharmaceuticals in Mixed Solvents by HPLC. Appl. Radiat. Isot., 1987, 38, 701-708; Johannsen, B.; Scheunemann, M.; Spies, H.; Brust, P.; Wober, J.; Syhre, R.; Pietzsch, H.-J. Technetium(V) and Rhenium(V) Complexes for 5-HT2A Serotonin Receptor Binding: Structure-Affinity Considerations. Nucl. Med. Biol., 1996, 23, 429-438; and Johannsen, B.; Berger, R.; Brust, P.; Pietzsch, H.-J; Scheunemann, M.; Seifert, S.; Spies, H.; Syhre, R. Structural Modification of Receptor-Binding Technetium-99m Complexes in Order to Improve Brain Uptake. Eur. J. Nucl. Med. 1997, 24, 316-319). […] Since log D(pH 7.4) is a composite measure of log P and pKa, the log D(PH 7.4) of Re-Compound B (1.9) is also higher than that of Re-Compound A (1.1). […] With pKa values >9 for complexes Re-Compound C and Re-Compound D, the resulting low log D(PH 7.4) values of −0.5 (Re-Compound C) and 0.7 (Re-Compound D) are not surprising, since the complexes would exist in a protonated form at pH 7.4.
Determination of Lipophilicity and pKa Values. The lipophilicity and pKa values of all complexes were determined using HPLC methods described previously (Stylli, C.; Theobald, A. E. Determination of Ionization Constants of 4 Radiopharmaceuticals in Mixed Solvents by HPLC. Appl. Radiat. Isot., 1987, 38, 701-708; Johannsen, B.; Scheunemann, M.; Spies, H.; Brust, P.; Wober, J.; Syhre, R.; Pietzsch, H.-J. Technetium(V) and Rhenium(V) Complexes for 5-HT2A Serotonin Receptor Binding: Structure-Affinity Considerations. Nucl. Med. Biol., 1996, 23, 429-438; and Johannsen, B.; Berger, R.; Brust, P.; Pietzsch, H.-J.; Scheunemann, M.; Seifert, S.; Spies, H.; Syhre, R. Structural Modification of Receptor-Binding Technetium-99m Complexes in Order to Improve Brain Uptake. Eur. J. Nucl. Med. 1997, 24, 316-319). […] The mobile phase was acetonitrile:phosphate buffer (0.01 M), 3:1, v/v, with the aqueous buffer adjusted to the desired pH between 3 and 11. The capacity factor (k′) was calculated for each determination (Braumann, T.; Grimme, L. H. Determination of Hydrophobic Parameters for Pyridazinone Herbicides by Liquid-Liquid Partition and Reversed-Phase High-Performance Liquid Chromatography. J. Chromatogr. 1981, 206, 7-15; El Tayer, N.; van der Waterbeemd, H.; Testa, B. Lipophilicity Measurements of Protonated Basic Compounds by Reversed-Phase High-Performance Liquid Chromatography. II. Procedure for the Determination of a Lipophilic Index Measured by Reversed-Phase High Performance Liquid Chromatography. J. Chromatogr. 1985, 320, 305-312; and Minick, D. J.; Frenz, J. H.; Patrick, M. A.; Brent, D. A. A Comprehensive Method for Determining Hydrophobicity Constants by Reversed-Phase High-Performance Liquid Chromatography. J. Med. Chem., 1988, 31, 1923-1933) and the partition coefficient at a given pH (D or log D) were calculated from the equation: log D=a log k′+b where the parameters a and b are predetermined using standard amines. The fitted points of inflection from the sigmoidal DHPLC/pH profiles permit calculation of the pKHPLC(Stylli, C.; Theobald, A. E. Determination of Ionization Constants of Radiopharmaceuticals in Mixed Solvents by HPLC. Appl. Radiat. Isot., 1987, 38, 701-708). The aqueous ionization constants pKa were calculated from the pKHPLC values after correction with a predetermined correction factor obtained using standard amine compounds. Log P values of the neutral complexes were estimated from the respective upper plateau of the sigmoidal log D/pH curve in the alkaline range.

CCN(CC)CCNC(=O)c1ccc(CC2[N]3CC(C)(C)[S][Tc]34(#[N])[S]C(C)(C)C[N]4C2(C)C)cc1 (centres unmarked) [Compound 1]
melanoma uptake (melanoma): Compound 10.4% uptake % ID/g

CCN(CC)CCNC(=O)c1ccc(CCNC2=[SH][Tc]3(#[N])([S]2)[S]C(NCCc2ccc(C(=O)NCCN(CC)CC)cc2)=[SH]3)cc1 [Compound 4]
melanoma uptake (melanoma): Compound 40.5% uptake % ID/g

CCN(CC)CCCN1CC[S][Re]2(=[O])[S]CC[N]2C(=O)C1 (centres unmarked) [Re-Compound C, [ReOAADT]-C3—NEt2]
greater affinity toward the σ2-receptor subtype (σ2-receptors): 100 fold | pKa [1]: 9.2 | log D(pH 7.4) ([1]; pH 7.4): −0.5
